{"source": "paper PMC10066365", "about": "“Nemacol is a small molecule inhibitor of C. elegans vesicular acetylcholine transporter with anthelmintic potential” (Nature Communications, 2023)", "key": {"Pristionchus pacificus": {"tested_on": "Pristionchus pacificus", "assay": "Pristionchus pacificus motor disruption dose-response on solid media, 1 h", "conditions": "for mean % any phene (coiled, jerky-Unc or paralyzed): Pristionchus pacificus young adults, mean of three biological replicates; for EC50: Pristionchus pacificus, 1 h, read-out: P. pacificus motor disruption EC50"}, "[1]": {"tested_on": "Dirofilaria immitis L3/L4", "assay": "Dirofilaria immitis L3/L4 motility assay (DiroImager, 72 h)", "conditions": "Dirofilaria immitis L4"}, "[2]": {"tested_on": "Dirofilaria immitis microfilariae", "assay": "Dirofilaria immitis microfilariae immobility assay (DiroImager, 72 h)", "conditions": "Dirofilaria immitis microfilariae", "procedure": "We conducted experiments with the Missouri isolate of Dirofilaria immitis in two labs. In the first set of experiments, shown as part of Fig. 3c, D. immitis microfilariae and larval stage 3 (L3) worms were assayed in the laboratories of Bayer Animal Health GmbH (Monheim, Germany). For microfilariae immobility assays, approximately 250 freshly purified microfilariae were cultured in single wells of a 96-well microtiter plate containing supplemented RPMI 1640 medium[68],[69]. […] Microfilariae exposed to medium substituted with 1% DMSO were used as negative controls. Motility of microfilariae was evaluated after 72 h of drug exposure using an image-based approach—DiroImager, developed by Bayer Technology Services. As described in detail in refs. [68],[69], the DiroImager is an automated high-throughput platform that allows for high-resolution optical imaging of an entire 96-well microtiter plate."}, "C. elegans": {"tested_on": "C. elegans", "assay": "C. elegans motor phenotype scoring on solid media (Punc/jerky-unc, coiled, paralyzed), wild-type young adults", "format": "in vivo, Caenorhabditis elegans", "conditions": "for any phene, mean % fraction of young adults exhibiting any phenotype (coiled, jerky-Unc or paralyzed) / atypical locomotion (number of animals) / coiled (number of animals) / no phene (number of animals) / paralyzed (number of animals) / any phene (mean % fraction of young adults exhibiting any phenotype: coiled, jerky-Unc or paralyzed): one hour; for any phene, mean % fraction of young adults exhibiting any phenotype (coiled, jerky-Unc or paralyzed) / any phene (mean % fraction of young adults exhibiting any phenotype: coiled, jerky-Unc or paralyzed): mean of three biological replicates; for atypical locomotion (number of animals) / coiled (number of animals) / no phene (number of animals) / paralyzed (number of animals): young adults, 20 animals per trial, single replicate counts; for EC50: Caenorhabditis elegans, read-out: C. elegans - motor disruption EC50"}, "[3]": {"conditions": "conc 3.75, observed at one hour"}, "[4]": {"conditions": "conc 3.75, count of 20 animals per trial, one hour"}}, "note": "Several values for one entry are separate records, joined by “and”; a condition that tells them apart may be missing. Equal entries are not always repeated. Where two headings read alike, the source gives them in different places.", "data": [{"smiles": "O=[N+]([O-])c1ccc(N2CCN(c3ccccc3O)CC2)cc1", "note": "[Nemacol-13]", "values": [{"measurement": "mean % any phene (coiled, jerky-Unc or paralyzed)", "setting": "Pristionchus pacificus; [3]", "result": 0, "unit": "%"}, {"measurement": "mean % any phene (coiled, jerky-Unc or paralyzed)", "setting": "Pristionchus pacificus; conc 15, observed at one hour", "result": 0, "unit": "%"}, {"measurement": "mean % any phene (coiled, jerky-Unc or paralyzed)", "setting": "Pristionchus pacificus; conc 60, observed at one hour", "result": 9.167, "unit": "%"}, {"measurement": "EC50", "setting": "Pristionchus pacificus", "result": "> 60", "unit": "µM"}, {"measurement": "% effect (motility), DIROIM L4", "setting": "[1]; 2 µM", "result": 0, "unit": "%"}, {"measurement": "% effect (motility), DIROIM L4", "setting": "[1]; 10 µM", "result": 0, "unit": "%"}, {"measurement": "% effect (motility), DIROIM L4", "setting": "[1]; 50 µM", "result": 0, "unit": "%"}, {"measurement": "% effect (motility), DIROIM MF", "setting": "[2]; 0.016 µM", "result": 0, "unit": "%"}, {"measurement": "% effect (motility), DIROIM MF", "setting": "[2]; 0.08 µM", "result": 0, "unit": "%"}, {"measurement": "% effect (motility), DIROIM MF", "setting": "[2]; 0.4 µM", "result": 0, "unit": "%"}, {"measurement": "% effect (motility), DIROIM MF", "setting": "[2]; 2 µM", "result": 0, "unit": "%"}, {"measurement": "% effect (motility), DIROIM MF", "setting": "[2]; 10 µM", "result": 0, "unit": "%"}, {"measurement": "any phene, mean % fraction of young adults exhibiting any phenotype (coiled, jerky-Unc or paralyzed)", "setting": "C. elegans; 3.75uM", "result": 0.8333, "unit": "%"}, {"measurement": "atypical locomotion (number of animals)", "setting": "C. elegans; 3.75uM", "result": "0 and 1"}, {"measurement": "coiled (number of animals)", "setting": "C. elegans; 3.75uM", "result": 0}, {"measurement": "no phene (number of animals)", "setting": "C. elegans; 3.75uM", "result": "20 and 19"}, {"measurement": "paralyzed (number of animals)", "setting": "C. elegans; 3.75uM", "result": 0}, {"measurement": "any phene, mean % fraction of young adults exhibiting any phenotype (coiled, jerky-Unc or paralyzed)", "setting": "C. elegans; 15uM", "result": 2.5, "unit": "%"}, {"measurement": "atypical locomotion (number of animals)", "setting": "C. elegans; 15uM", "result": "0 and 2 and 1"}, {"measurement": "coiled (number of animals)", "setting": "C. elegans; 15uM", "result": 0}, {"measurement": "no phene (number of animals)", "setting": "C. elegans; 15uM", "result": "20 and 18 and 19"}, {"measurement": "paralyzed (number of animals)", "setting": "C. elegans; 15uM", "result": 0}, {"measurement": "any phene, mean % fraction of young adults exhibiting any phenotype (coiled, jerky-Unc or paralyzed)", "setting": "C. elegans; 60uM", "result": 20, "unit": "%"}, {"measurement": "atypical locomotion (number of animals)", "setting": "C. elegans; 60uM", "result": "0 and 11 and 13"}, {"measurement": "coiled (number of animals)", "setting": "C. elegans; 60uM", "result": 0}, {"measurement": "no phene (number of animals)", "setting": "C. elegans; 60uM", "result": "20 and 9 and 7"}, {"measurement": "paralyzed (number of animals)", "setting": "C. elegans; 60uM", "result": 0}, {"measurement": "EC50", "setting": "C. elegans; any motor phenotype after 1 h on solid media, ± 95% CI", "result": "> 60", "unit": "µM"}]}, {"smiles": "O=C(C1CCC1)N1CCN(c2ccc(F)cc2)CC1", "note": "[Nemacol-18]", "values": [{"measurement": "mean % any phene (coiled, jerky-Unc or paralyzed)", "setting": "Pristionchus pacificus; [3]", "result": 3.333, "unit": "%"}, {"measurement": "mean % any phene (coiled, jerky-Unc or paralyzed)", "setting": "Pristionchus pacificus; conc 15, observed at one hour", "result": 3.333, "unit": "%"}, {"measurement": "mean % any phene (coiled, jerky-Unc or paralyzed)", "setting": "Pristionchus pacificus; conc 60, observed at one hour", "result": 15.8333, "unit": "%"}, {"measurement": "EC50", "setting": "Pristionchus pacificus", "result": "> 60", "unit": "µM"}, {"measurement": "rep 1 atypical locomotion", "setting": "Pristionchus pacificus; [4]", "result": 0}, {"measurement": "rep 1 coiled", "setting": "Pristionchus pacificus; [4]", "result": 0}, {"measurement": "rep 1 no phene", "setting": "Pristionchus pacificus; [4]", "result": 20}, {"measurement": "rep 1 paralyzed", "setting": "Pristionchus pacificus; [4]", "result": 0}, {"measurement": "rep 2 atypical locomotion", "setting": "Pristionchus pacificus; [4]", "result": 0}, {"measurement": "rep 2 coiled", "setting": "Pristionchus pacificus; [4]", "result": 0}, {"measurement": "rep 2 no phene", "setting": "Pristionchus pacificus; [4]", "result": 20}, {"measurement": "rep 2 paralyzed", "setting": "Pristionchus pacificus; [4]", "result": 0}, {"measurement": "rep 3 atypical locomotion", "setting": "Pristionchus pacificus; [4]", "result": 0}, {"measurement": "rep 3 coiled", "setting": "Pristionchus pacificus; [4]", "result": 0}, {"measurement": "rep 3 no phene", "setting": "Pristionchus pacificus; [4]", "result": 19}, {"measurement": "rep 3 paralyzed", "setting": "Pristionchus pacificus; [4]", "result": 1}, {"measurement": "% effect (motility), DIROIM L4", "setting": "[1]; 2 µM", "result": 5, "unit": "%"}, {"measurement": "% effect (motility), DIROIM L4", "setting": "[1]; 10 µM", "result": 0, "unit": "%"}, {"measurement": "% effect (motility), DIROIM L4", "setting": "[1]; 50 µM", "result": 10, "unit": "%"}, {"measurement": "% effect (motility), DIROIM MF", "setting": "[2]; 0.016 µM", "result": 0, "unit": "%"}, {"measurement": "% effect (motility), DIROIM MF", "setting": "[2]; 0.08 µM", "result": 0, "unit": "%"}, {"measurement": "% effect (motility), DIROIM MF", "setting": "[2]; 0.4 µM", "result": 0, "unit": "%"}, {"measurement": "% effect (motility), DIROIM MF", "setting": "[2]; 2 µM", "result": 0, "unit": "%"}, {"measurement": "% effect (motility), DIROIM MF", "setting": "[2]; 10 µM", "result": 0, "unit": "%"}, {"measurement": "any phene (mean % fraction of young adults exhibiting any phenotype: coiled, jerky-Unc or paralyzed)", "setting": "C. elegans; 3.75uM, third c14 line of each analog", "result": 0, "unit": "%"}, {"measurement": "any phene (mean % fraction of young adults exhibiting any phenotype: coiled, jerky-Unc or paralyzed)", "setting": "C. elegans; 15uM, second c14 line of each analog", "result": 10, "unit": "%"}, {"measurement": "any phene (mean % fraction of young adults exhibiting any phenotype: coiled, jerky-Unc or paralyzed)", "setting": "C. elegans; 60uM, first c14 line of each analog", "result": 27.5, "unit": "%"}, {"measurement": "EC50", "setting": "C. elegans; 1 h", "result": "> 60", "unit": "µM"}]}]}
